The text below walks through data of PubChem BioAssay AID192 (DTP/NCI, 2004).

This test has as its system BDF1 mice, B16 melanoma ip, median survival T/C. In words: NCI In Vivo Anticancer Drug Screen. Data for tumor model B16 Melanoma (intraperitoneal) in B6D2F1 (BDF1) mice. As to conditions: endpoint: median survival time, higher = longer survival. Summed up: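 Tumor-bearing mice received test compound or vehicle. Survival or tumor size was then measured in both groups. The treated-group figure was divided by the control-group figure.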

Setting [1] is: dose: 50.0 mg/kg/injection, schedule: Q01DX009 (ip), vehicle: saline with Tween-80.
Setting [2] is: dose: 100.0 mg/kg/injection, schedule: Q01DX009 (ip), vehicle: saline with Tween-80.
Where [3] appears, read: dose: 200.0 mg/kg/injection, schedule: Q01DX009 (ip), vehicle: saline with Tween-80.
Setting [4] is: dose: 12.5 mg/kg/injection, schedule: Q01DX009 (ip), vehicle: Klucel (hydroxypropylcellulose) (HPC).
The mark [5] stands for this setting: dose: 25.0 mg/kg/injection, schedule: Q01DX009 (ip), vehicle: Klucel (hydroxypropylcellulose) (HPC).
[6] abbreviates: dose: 50.0 mg/kg/injection, schedule: Q01DX009 (ip), vehicle: Klucel (hydroxypropylcellulose) (HPC).
Where [7] appears, read: dose: 100.0 mg/kg/injection, schedule: Q01DX009 (ip), vehicle: Klucel (hydroxypropylcellulose) (HPC).
Setting [8] is: dose: 200.0 mg/kg/injection, schedule: Q01DX009 (ip), vehicle: Klucel (hydroxypropylcellulose) (HPC).
The mark [9] stands for this setting: dose: 6.25 mg/kg/injection, schedule: Q01DX009 (ip), vehicle: saline.
Where [10] appears, read: dose: 12.5 mg/kg/injection, schedule: Q01DX009 (ip), vehicle: saline.
[11] abbreviates: dose: 25.0 mg/kg/injection, schedule: Q01DX009 (ip), vehicle: saline.
Where [12] appears, read: dose: 50.0 mg/kg/injection, schedule: Q01DX009 (ip), vehicle: saline.
Where [13] appears, read: dose: 400.0 mg/kg/injection, schedule: Q01DX009 (ip), vehicle: Klucel (hydroxypropylcellulose) (HPC).
Setting [14] is: dose: 6.25 mg/kg/injection, schedule: Q01DX009 (ip), vehicle: saline with Tween-80.
Setting [15] is: dose: 3.12 mg/kg/injection, schedule: Q01DX009 (ip), vehicle: saline.

Several values for one entry are separate records, joined by “and”; a condition that tells them apart may be missing. Identical values can stand only once. Inconclusive results and toxic doses are left out.

As for `O=C(O)C1CCCN1CCc1ccccc1` (stereo not drawn), the T/C is, setting by setting: (dose: 100.0 mg/kg/injection, schedule: Q04DX003 (ip), vehicle: saline) 98 % of control; (dose: 200.0 mg/kg/injection, schedule: Q04DX003 (ip), vehicle: saline) 103 % of control; (dose: 400.0 mg/kg/injection, schedule: Q04DX003 (ip), vehicle: saline) 102 % of control.

On to `COC(=O)/C=C/C=C(c1ccccc1)c1ccccc1`, for which the T/C is, setting by setting: under setting [1], 94 % of control; under setting [2], 100 % of control; under setting [3], 94 % of control; (dose: 400.0 mg/kg/injection, schedule: Q01DX009 (ip), vehicle: saline with Tween-80) 94 % of control.

In the case of `COc1ccc(C(Nc2ccccc2)C(=O)c2ccccc2)cc1` (stereo not drawn), the T/C reads like this: (dose: 3.12 mg/kg/injection, schedule: Q01DX009 (ip), vehicle: Klucel (hydroxypropylcellulose) (HPC)) 90 % of control; (dose: 6.25 mg/kg/injection, schedule: Q01DX009 (ip), vehicle: Klucel (hydroxypropylcellulose) (HPC)) 106 % of control; under setting [4], 89 % of control; under setting [5], 89 % of control and 90 % of control.

With `CCCC[N+](CCCC)(CCCC)CCCC.Cc1ccc([SH2+])c([SH2+])c1.Cc1ccc([SH2+])c([SH2+])c1.[Fe+3]`, the T/C by setting is: under setting [5], 93 % of control; (dose: 25.0 mg/kg/injection, schedule: Q01DX009 (ip), vehicle: saline with Tween-80) 97 % of control; under setting [6], 99 % of control; under setting [1], 98 % of control; under setting [7], 93 % of control; under setting [2], 103 % of control. Besides, the T/C under setting [8] is 93 % of control and the T/C under setting [3] is 98 % of control.

In the case of `CC(C)CC(NC(=O)C(N)C(C)C)C(=O)NC(CCCCN)C(=O)Nc1ccc(N(CCCl)CCCl)cc1` (stereo not drawn), the T/C by setting is: (dose: 0.74 mg/kg/injection, schedule: Q01DX009 (ip), vehicle: saline) 105 % of control; (dose: 1.49 mg/kg/injection, schedule: Q01DX009 (ip), vehicle: saline) 109 % of control and 120 % of control; (dose: 5.95 mg/kg/injection, schedule: Q01DX009 (ip), vehicle: saline) 159 % of control and 182 % of control.

As to `CCCCC(=O)OC1CC2CCC1(C)C2(C)C` (stereo not drawn), the T/C under setting [7] is 90 % of control.

As for `OCC(O)COCC#Cc1ccccc1` (stereo not drawn), the T/C reads like this: under setting [9], 118 % of control; under setting [10], 114 % of control; under setting [11], 110 % of control; under setting [6], 87 % of control; under setting [12], 101 % of control.

Turning to `O=C(O)CCC(=O)O`, the T/C was 101 % of control [middle of 4 runs] (dose: 10.0 mg/kg/injection, schedule: Q01DX009 (ip), vehicle: water); 102 % of control [middle of 4 runs] (dose: 20.0 mg/kg/injection, schedule: Q01DX009 (ip), vehicle: water); 101 % of control and 119 % of control and 98 % of control (dose: 40.0 mg/kg/injection, schedule: Q01DX009 (ip), vehicle: water); 93 % of control and 100 % of control and 104 % of control (dose: 80.0 mg/kg/injection, schedule: Q01DX009 (ip), vehicle: water); 88 % of control and 94 % of control and 114 % of control (dose: 160.0 mg/kg/injection, schedule: Q01DX009 (ip), vehicle: water); 106 % of control (dose: 320.0 mg/kg/injection, schedule: Q01DX009 (ip), vehicle: water).

Consider `c1cc[c]([Pb]([S]c2nc3ccccc3[nH]2)([c]2ccccc2)[c]2ccccc2)cc1`, for which the T/C was 100 % of control (dose: 0.75 mg/kg/injection, schedule: Q01DX009 (ip), vehicle: Klucel (hydroxypropylcellulose) (HPC)) and 94 % of control (dose: 1.5 mg/kg/injection, schedule: Q01DX009 (ip), vehicle: Klucel (hydroxypropylcellulose) (HPC)).

For the molecule `Cc1ccc(NC(=S)N(C)C)cc1C`, the T/C reads like this: under setting [7], 100 % of control; under setting [8], 100 % of control; under setting [13], 92 % of control.

Turning to `CCc1ccc2c(c1)N(CCCN(CCCl)CCCl)c1ccccc1S2`, the T/C is 114 % of control (dose: 1.56 mg/kg/injection, schedule: Q01DX009 (ip), vehicle: saline with Tween-80); 87 % of control (dose: 1.56 mg/kg/injection, schedule: Q04DX003 (ip), vehicle: saline with Tween-80); 92 % of control and 123 % of control (dose: 3.12 mg/kg/injection, schedule: Q01DX009 (ip), vehicle: saline with Tween-80); 110 % of control (dose: 3.12 mg/kg/injection, schedule: Q04DX003 (ip), vehicle: saline with Tween-80); 111 % of control and 117 % of control under setting [14]; 105 % of control (dose: 6.25 mg/kg/injection, schedule: Q04DX003 (ip), vehicle: saline with Tween-80). In addition, the T/C by setting is: (dose: 12.5 mg/kg/injection, schedule: Q04DX003 (ip), vehicle: saline with Tween-80) 112 % of control; (dose: 25.0 mg/kg/injection, schedule: Q04DX003 (ip), vehicle: saline with Tween-80) 115 % of control.

On to `COc1cccc(NC(=O)Nc2ccccc2)c1`, for which the T/C is, setting by setting: under setting [7], 110 % of control; under setting [8], 101 % of control; under setting [13], 88 % of control.

For the molecule `O=C(OC1C=CC2CCC1C2)c1ccc([N+](=O)[O-])cc1` (stereo not drawn), the T/C under setting [1] was 91 % of control, the T/C under setting [2] was 96 % of control and the T/C under setting [3] is 93 % of control.

As to `COc1ccccc1NC(=O)Nc1ccc(C(=O)OCC(C)C)cc1`, the T/C is 100 % of control under setting [1], 94 % of control under setting [2] and 95 % of control under setting [3].

With `COC1=C(N2CC2)C(=O)C(OC)=C(N2CC2)C1=O`, the T/C by setting is: (dose: 0.25 mg/kg/injection, schedule: Q01DX009 (ip), vehicle: other) 112 % of control and 118 % of control; (dose: 1.0 mg/kg/injection, schedule: Q01DX009 (ip), vehicle: saline with Tween-80) 179 % of control; (dose: 2.0 mg/kg/injection, schedule: Q01DX009 (ip), vehicle: other) 169 % of control.

In the case of `CCN1/C(=C/C=C/C=C\C=C\c2sc3ccc4ccccc4c3[n+]2CC)Sc2ccc3ccccc3c21`, the T/C was 87 % of control (dose: 2.5 mg/kg/injection, schedule: Q01DX009 (ip), vehicle: saline with Tween-80); 115 % of control (dose: 10.0 mg/kg/injection, schedule: Q01DX009 (ip), vehicle: saline with Tween-80); 96 % of control (dose: 20.0 mg/kg/injection, schedule: Q01DX009 (ip), vehicle: saline with Tween-80).

Regarding `NC1CC1c1ccccc1` (stereo not drawn), the T/C is 91 % of control under setting [15], 101 % of control under setting [9], 102 % of control under setting [10] and 113 % of control under setting [11].

`NC(=S)N/N=C/c1cc(-c2cccc(N)c2)ccn1`: the T/C under setting [14] is 104 % of control and 123 % of control and 124 % of control; the T/C (dose: 12.5 mg/kg/injection, schedule: Q01DX009 (ip), vehicle: saline with Tween-80) is 122 % of control; the T/C under setting [10] is 166 % of control; the T/C under setting [11] is 156 % of control; the T/C (dose: 37.5 mg/kg/injection, schedule: Q04DX003 (ip), vehicle: saline) was 166 % of control; the T/C (dose: 75.0 mg/kg/injection, schedule: Q01DX009 (ip), vehicle: saline with Tween-80) was 124 % of control. In addition, the T/C is 156 % of control (dose: 75.0 mg/kg/injection, schedule: Q04DX003 (ip), vehicle: saline) and 150 % of control (dose: 150.0 mg/kg/injection, schedule: Q04DX003 (ip), vehicle: saline).

Turning to `Cc1ccc(S(=O)(=O)N/N=C(\C(=O)O)c2ccccc2)cc1`, the T/C reads like this: under setting [4], 95 % of control; under setting [5], 87 % of control and 88 % of control; under setting [6], 91 % of control; under setting [7], 89 % of control.

Turning to `C=CCC(N)Cc1ccccc1` (stereo not drawn), the T/C is, setting by setting: under setting [15], 105 % of control; (dose: 3.12 mg/kg/injection, schedule: Q04DX003 (ip), vehicle: saline) 112 % of control; under setting [9], 105 % of control; (dose: 6.25 mg/kg/injection, schedule: Q04DX003 (ip), vehicle: saline) 105 % of control; under setting [10], 111 % of control; (dose: 12.5 mg/kg/injection, schedule: Q04DX003 (ip), vehicle: saline) 97 % of control. The T/C is 100 % of control under setting [11]; 100 % of control (dose: 25.0 mg/kg/injection, schedule: Q04DX003 (ip), vehicle: saline); 110 % of control under setting [12]; 100 % of control (dose: 50.0 mg/kg/injection, schedule: Q04DX003 (ip), vehicle: saline).
